Patent publication US20230381321A1, “CAMPTOTHECIN CONJUGATES” (priority 2022, published 2023)

System: renal carcinoma cells (786-O)
Assay: In vitro potency (CellTiter-Glo, 96 h) on 786-O
Type: cell-based
Conditions: Homo sapiens, 786-0, 96 h, CPT free drugs; CellTiter-Glo after 96 h exposure; read-out: 786-O IC50
Outline: (§1)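 Log-phase cells were seeded 24 h in RPMI 1640 with 20% FBS, then exposed to serially diluted […] for 96 h. Growth inhibition was measured by CellTiter-Glo luminescence.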

| SMILES | IC50 [nM] |
| --- | --- |
| CC[C@@]1(O)C(=O)OCc2c1cc1n(c2=O)Cc2c-1nc1cc(F)c(C)c(-c3cccc(O)c3)c1c2CN [Compound 6i] | 5 |
| CC[C@@]1(O)C(=O)OCc2c1cc1n(c2=O)Cc2c-1nc1cc(F)c(C)c(C3=CCOCC3)c1c2CN [Compound 6h] | 36 |
| CC[C@@]1(O)C(=O)OCc2c1cc1n(c2=O)Cc2c-1nc1cc(F)c(C)c(C3=CCCCC3)c1c2CN [Compound 6b] | 23 |
| CC[C@@]1(O)C(=O)OCc2c1cc1n(c2=O)Cc2c-1nc1cccc(OC)c1c2CN [Compound 5a] | 56 |

System: pancreatic cancer cells (BxPC3)
Assay: In vitro potency (CellTiter-Glo, 96 h) on BxPC3
Type: cell-based
Conditions: Homo sapiens, BXPC-3, 96 h, CPT free drugs; CellTiter-Glo after 96 h exposure; read-out: BxPC3 IC50
Outline: as §1

| SMILES | IC50 [nM] |
| --- | --- |
| CC[C@@]1(O)C(=O)OCc2c1cc1n(c2=O)Cc2c-1nc1cc(F)c(C)c(-c3cccc(O)c3)c1c2CN [Compound 6i] | 10 |
| CC[C@@]1(O)C(=O)OCc2c1cc1n(c2=O)Cc2c-1nc1cc(F)c(C)c(C3=CCOCC3)c1c2CN [Compound 6h] | 100 |
| CC[C@@]1(O)C(=O)OCc2c1cc1n(c2=O)Cc2c-1nc1cc(F)c(C)c(C3=CCCCC3)c1c2CN [Compound 6b] | 18 |
| CC[C@@]1(O)C(=O)OCc2c1cc1n(c2=O)Cc2c-1nc1cccc(OC)c1c2CN [Compound 5a] | 154 |

System: anaplastic large cell lymphoma cells (DELBVR)
Assay: In vitro potency (CellTiter-Glo, 96 h) on DELBVR
Type: cell-based
Conditions: 96 h, CPT free drugs; CellTiter-Glo after 96 h exposure; read-out: DELBVR IC50
Outline: as §1

| SMILES | IC50 [nM] |
| --- | --- |
| CC[C@@]1(O)C(=O)OCc2c1cc1n(c2=O)Cc2c-1nc1cc(F)c(C)c(-c3cccc(O)c3)c1c2CN [Compound 6i] | 1 |
| CC[C@@]1(O)C(=O)OCc2c1cc1n(c2=O)Cc2c-1nc1cc(F)c(C)c(C3=CCOCC3)c1c2CN [Compound 6h] | 7 |
| CC[C@@]1(O)C(=O)OCc2c1cc1n(c2=O)Cc2c-1nc1cc(F)c(C)c(C3=CCCCC3)c1c2CN [Compound 6b] | 5 |
| CC[C@@]1(O)C(=O)OCc2c1cc1n(c2=O)Cc2c-1nc1cccc(OC)c1c2CN [Compound 5a] | 10 |

System: B-lymphocyte cancer cells (SU-DHL4)
Assay: In vitro potency (CellTiter-Glo, 96 h) on SU-DHL4
Type: cell-based
Conditions: Homo sapiens, SU-DHL-4, 96 h, CPT free drugs; CellTiter-Glo after 96 h exposure; read-out: SU-DHL-4 IC50
Outline: as §1

| SMILES | IC50 [nM] |
| --- | --- |
| CC[C@@]1(O)C(=O)OCc2c1cc1n(c2=O)Cc2c-1nc1cc(F)c(C)c(-c3cccc(O)c3)c1c2CN [Compound 6i] | 2 |
| CC[C@@]1(O)C(=O)OCc2c1cc1n(c2=O)Cc2c-1nc1cc(F)c(C)c(C3=CCOCC3)c1c2CN [Compound 6h] | 14 |
| CC[C@@]1(O)C(=O)OCc2c1cc1n(c2=O)Cc2c-1nc1cc(F)c(C)c(C3=CCCCC3)c1c2CN [Compound 6b] | 9 |
| CC[C@@]1(O)C(=O)OCc2c1cc1n(c2=O)Cc2c-1nc1cccc(OC)c1c2CN [Compound 5a] | 12 |

System: acute myeloid leukemia cells (MOLM-13)
Assay: In vitro potency (CellTiter-Glo, 96 h) on MOLM-13
Type: cell-based
Conditions: Homo sapiens, MOLM-13, 96 h, CPT free drugs; CellTiter-Glo after 96 h exposure; read-out: MOLM-13 IC50
Outline: as §1

| SMILES | IC50 [nM] |
| --- | --- |
| CC[C@@]1(O)C(=O)OCc2c1cc1n(c2=O)Cc2c-1nc1cc(F)c(C)c(-c3cccc(O)c3)c1c2CN [Compound 6i] | 2 |
| CC[C@@]1(O)C(=O)OCc2c1cc1n(c2=O)Cc2c-1nc1cc(F)c(C)c(C3=CCOCC3)c1c2CN [Compound 6h] | 31 |
| CC[C@@]1(O)C(=O)OCc2c1cc1n(c2=O)Cc2c-1nc1cc(F)c(C)c(C3=CCCCC3)c1c2CN [Compound 6b] | 9 |
| CC[C@@]1(O)C(=O)OCc2c1cc1n(c2=O)Cc2c-1nc1cccc(OC)c1c2CN [Compound 5a] | 73 |

System: anaplastic large cell lymphoma cells (Karpas299)
Assay: In vitro potency (CellTiter-Glo, 96 h) on Karpas299
Type: cell-based
Conditions: Homo sapiens, KARPAS-299, 96 h, CPT free drugs; CellTiter-Glo after 96 h exposure; read-out: Karpas299 IC50
Outline: as §1

| SMILES | IC50 [nM] |
| --- | --- |
| CC[C@@]1(O)C(=O)OCc2c1cc1n(c2=O)Cc2c-1nc1cc(F)c(C)c(-c3cccc(O)c3)c1c2CN [Compound 6i] | 4 |
| CC[C@@]1(O)C(=O)OCc2c1cc1n(c2=O)Cc2c-1nc1cc(F)c(C)c(C3=CCOCC3)c1c2CN [Compound 6h] | 28 |
| CC[C@@]1(O)C(=O)OCc2c1cc1n(c2=O)Cc2c-1nc1cc(F)c(C)c(C3=CCCCC3)c1c2CN [Compound 6b] | 14 |
| CC[C@@]1(O)C(=O)OCc2c1cc1n(c2=O)Cc2c-1nc1cccc(OC)c1c2CN [Compound 5a] | 28 |

System: breast cancer cells (MDA-MB-231)
Assay: In vitro potency (CellTiter-Glo, 96 h) on MDA-MB-231
Type: cell-based
Conditions: Homo sapiens, MDA-MB-231, 96 h, CPT free drugs; CellTiter-Glo after 96 h exposure; read-out: MDAMB 231 IC50
Outline: as §1

| SMILES | IC50 [nM] |
| --- | --- |
| CC[C@@]1(O)C(=O)OCc2c1cc1n(c2=O)Cc2c-1nc1cc(F)c(C)c(-c3cccc(O)c3)c1c2CN [Compound 6i] | 11 |
| CC[C@@]1(O)C(=O)OCc2c1cc1n(c2=O)Cc2c-1nc1cc(F)c(C)c(C3=CCOCC3)c1c2CN [Compound 6h] | 102 |
| CC[C@@]1(O)C(=O)OCc2c1cc1n(c2=O)Cc2c-1nc1cc(F)c(C)c(C3=CCCCC3)c1c2CN [Compound 6b] | 35 |
| CC[C@@]1(O)C(=O)OCc2c1cc1n(c2=O)Cc2c-1nc1cccc(OC)c1c2CN [Compound 5a] | 350 |

System: anaplastic large cell lymphoma cells (DEL)
Assay: In vitro potency (CellTiter-Glo, 96 h) on DEL
Type: cell-based
Conditions: 96 h, CPT free drugs; CellTiter-Glo after 96 h exposure; read-out: DEL IC50
Outline: as §1

| SMILES | IC50 [nM] |
| --- | --- |
| CC[C@@]1(O)C(=O)OCc2c1cc1n(c2=O)Cc2c-1nc1cc(F)c(C)c(-c3cccc(O)c3)c1c2CN [Compound 6i] | 1 |
| CC[C@@]1(O)C(=O)OCc2c1cc1n(c2=O)Cc2c-1nc1cc(F)c(C)c(C3=CCOCC3)c1c2CN [Compound 6h] | 6 |
| CC[C@@]1(O)C(=O)OCc2c1cc1n(c2=O)Cc2c-1nc1cc(F)c(C)c(C3=CCCCC3)c1c2CN [Compound 6b] | 5 |
| CC[C@@]1(O)C(=O)OCc2c1cc1n(c2=O)Cc2c-1nc1cccc(OC)c1c2CN [Compound 5a] | 7 |

System: melanoma cells (A2058)
Assay: In vitro potency (CellTiter-Glo, 96 h) on A2058
Type: cell-based
Conditions: Homo sapiens, A2058, 96 h, CPT free drugs; CellTiter-Glo after 96 h exposure; read-out: A2058 IC50
Experimental: (§2) In vitro potency was assessed on multiple cancer cell lines. All cell lines were authenticated by STR profiling at IDEXX Bioresearch and cultured for no more than 2 months after resuscitation. Cells cultured in log-phase growth were seeded for 24 hours in 96-well plates containing […] RPMI 1640 supplemented with 20% FBS. Serial dilutions of antibody-drug conjugates in cell culture media were prepared at 4x working concentrations, and 50 μL of each dilution was added to the 96-well plates. Following addition of test articles, cells were incubated with test articles for 4 days at […]. After 96 hours, growth inhibition was assessed by CellTiterGlo® (Promega, Madison, WI) and luminescence was measured on a plate reader.
(§3) Cell viability was determined by CellTiter-Glo staining after 96h exposure to ADC. ND=Not Determined. In the following tables, “Ex_” refers to a drug linker number. For example, “Ag4-Ex_4a” refers to a conjugate of an Ag4 antibody with drug linker 4a.

| SMILES | IC50 [nM] |
| --- | --- |
| CC[C@@]1(O)C(=O)OCc2c1cc1n(c2=O)Cc2c-1nc1cc(F)c(C)c(-c3cccc(O)c3)c1c2CN [Compound 6i] | 2 |
| CC[C@@]1(O)C(=O)OCc2c1cc1n(c2=O)Cc2c-1nc1cc(F)c(C)c(C3=CCOCC3)c1c2CN [Compound 6h] | 20 |
| CC[C@@]1(O)C(=O)OCc2c1cc1n(c2=O)Cc2c-1nc1cc(F)c(C)c(C3=CCCCC3)c1c2CN [Compound 6b] | 15 |
| CC[C@@]1(O)C(=O)OCc2c1cc1n(c2=O)Cc2c-1nc1cccc(OC)c1c2CN [Compound 5a] | 16 |

System: not listed separately
Assay: In vitro potency (CellTiter-Glo, 96 h) on Ls174T
Type: cell-based
Conditions: Homo sapiens, LS174T; CPT free drugs; CellTiter-Glo after 96 h exposure; read-out: Ls174T IC50
Outline: as §1

| SMILES | IC50 [nM] |
| --- | --- |
| CC[C@@]1(O)C(=O)OCc2c1cc1n(c2=O)Cc2c-1nc1cc(F)c(C)c(-c3cccc(O)c3)c1c2CN [Compound 6i] | 10 |
| CC[C@@]1(O)C(=O)OCc2c1cc1n(c2=O)Cc2c-1nc1cc(F)c(C)c(C3=CCOCC3)c1c2CN [Compound 6h] | 48 |
| CC[C@@]1(O)C(=O)OCc2c1cc1n(c2=O)Cc2c-1nc1cc(F)c(C)c(C3=CCCCC3)c1c2CN [Compound 6b] | 85 |
| CC[C@@]1(O)C(=O)OCc2c1cc1n(c2=O)Cc2c-1nc1cccc(OC)c1c2CN [Compound 5a] | > 1000 |

System: Hodgkin's lymphoma cells (L540cy)
Assay: In vitro potency (CellTiter-Glo, 96 h) on L540cy
Type: cell-based
Conditions: L540cy, 96 h, CPT free drugs; CellTiter-Glo after 96 h exposure; read-out: L540cy IC50
Outline: as §1

| SMILES | IC50 [nM] |
| --- | --- |
| CC[C@@]1(O)C(=O)OCc2c1cc1n(c2=O)Cc2c-1nc1cc(F)c(C)c(-c3cccc(O)c3)c1c2CN [Compound 6i] | 3 |
| CC[C@@]1(O)C(=O)OCc2c1cc1n(c2=O)Cc2c-1nc1cc(F)c(C)c(C3=CCOCC3)c1c2CN [Compound 6h] | 19 |
| CC[C@@]1(O)C(=O)OCc2c1cc1n(c2=O)Cc2c-1nc1cc(F)c(C)c(C3=CCCCC3)c1c2CN [Compound 6b] | 13 |
| CC[C@@]1(O)C(=O)OCc2c1cc1n(c2=O)Cc2c-1nc1cccc(OC)c1c2CN [Compound 5a] | 20 |

System: non-small-cell lung cancer cells (Calu1)
Assay: In vitro potency (CellTiter-Glo, 96 h) on Calu1
Type: cell-based
Conditions: Homo sapiens, Calu-1, 96 h, CPT free drugs; CellTiter-Glo after 96 h exposure; read-out: Calu1 IC50
Experimental: as §2, §3

| SMILES | IC50 [nM] |
| --- | --- |
| CC[C@@]1(O)C(=O)OCc2c1cc1n(c2=O)Cc2c-1nc1cc(F)c(C)c(-c3cccc(O)c3)c1c2CN [Compound 6i] | 26 |
| CC[C@@]1(O)C(=O)OCc2c1cc1n(c2=O)Cc2c-1nc1cc(F)c(C)c(C3=CCOCC3)c1c2CN [Compound 6h] | 155 |
| CC[C@@]1(O)C(=O)OCc2c1cc1n(c2=O)Cc2c-1nc1cc(F)c(C)c(C3=CCCCC3)c1c2CN [Compound 6b] | 32 |
| CC[C@@]1(O)C(=O)OCc2c1cc1n(c2=O)Cc2c-1nc1cccc(OC)c1c2CN [Compound 5a] | 389 |
